Assay results: patent publication US20240180895A1, “USE OF KAPPA OPIOID RECEPTOR AGONISTS TO TREAT CARDIOVASCULAR DISEASE” (Board of Supervisors of Louisiana State University and …, priority 2021, published 2024)

Tests used:
Sprague-Dawley rats = assay: Prevention of diuretic resistance to twice daily furosemide by nalfurafine, 5-hour urine (FIG. 15); assay type: in vivo, rat; details: nalfurafine 10 μg/kg IP added to furosemide 20 mg/kg twice daily
Procedure: Male Sprague-Dawley rats were placed in individual metabolic cages in a room with 12-hour automatic light on/off control and allowed tap water and rodent chow ad libitum. Over the next two (2) days (control period), rats were administered vehicle (5% NaOH; 1 M PBS, IP) in the morning (9:00 am) and afternoon (2:00 pm) of each day, with urine collected for 5-hours starting immediately after the first injection. […] This was repeated for 4 consecutive days (experimental period).

[1] = tested on: conscious Sprague-Dawley rats; assay: Metabolic cage renal excretory studies, oral gavage (Example 3); assay type: in vivo, rat
Procedure: (§1) Animals: Male Sprague-Dawley (SD) rats (Envigo Labs, Indianapolis, IN), 300-350 g, were individually housed under a 12 h light-dark cycle and allowed tap water and standard rodent diet ad libitum. Rats were randomly assigned to experimental groups for all acute and subacute studies. All procedures were approved by the Louisiana State University Health Sciences Center Institutional Animal Care and Use Committee and conducted in accordance with the National Institutes of Health guidelines for the care and use of animals.
Metabolic Cage Renal Excretory Studies: Rats were placed in metabolic cages (model 18cv, Fenco, Cataumet, MA) for 2 hours to allow for acclimation and voiding of residual urine. Following the acclimation period, rats were volume loaded with 20 cc kg^−1 drug or vehicle (isotonic saline) via oral gavage. Urines were collected each hour over a 5-hour period. Following completion of the study rats were returned to their home cages. […] These points are marked on the figures with number of measurements in parentheses.
(§2) Experimental Design and Analysis: All results are expressed as mean±SEM. […] Means between groups for total urine output, Na^+ concentration, K^+ concentration, and urine osmolality were compared using a Student's t-test. Statistical significance was characterized as P<0.05. Statistics were carried out using Prism 7.05 software (GraphPad Software, Inc., San Diego, CA) and IBM SPSS Statistics (IBM, Armonk, NY).

[2] = tested on: spontaneously hypertensive rats; assay: Chronic oral nalfurafine, radiotelemetry blood pressure (FIG. 18); assay type: in vivo, rat; details: nalfurafine 0.5 mg/kg oral once per day for 5 weeks
Procedure: (§3) Male spontaneously hypertensive rats (SHR; Charles Rivers) were single housed and allowed tap water and standard rodent diet ad libitum. All procedures and experiments were conducted in accordance with the National Institutes of Health guidelines for the care and use of animals.
(§4) Radiotelemetry transmitters (Data Sciences International, St. Paul, MN) were implanted into SHR for chronic recording of blood pressure and heart rate and followed as previously published.^56 Briefly, rats were anesthetized and maintained on 2% isoflurane and the right femoral artery was surgically exposed. The transmitter catheter was inserted into the femoral artery and advanced until reaching the abdominal aorta. The site exposing the femoral artery was sutured and rats were allowed 1 week of recovery. Telemetry data was analyzed using Ponemah software (DSI, St. Paul, MN).
Spontaneously hypertensive rats were orally administered (gavage) nalfurafine (0.5 mg/kg) or vehicle (water) once per day for 5 weeks following recovery from radiotelemetry transmitter insertion. Blood pressure was recorded once per week and the 12:00-14:00 time frame was plotted.
(§5) All results are expressed as mean±SEM. Statistically different changes for both experimental protocols were determined using 2-way ANOVA with repeated measures and were considered statistically different following a significant/value for an interaction between experimental group and time. Statistical significance was determined as P<0.05, and statistics were performed on Prism 7.05 software (GraphPad Software, Inc, San Diego, CA).

[3] = tested on: conscious Sprague-Dawley rats; assay: Acute cardiovascular and renal excretory studies, i.v. bolus (Example 3); assay type: in vivo, rat
Procedure: as §1
Surgical Procedures: Aseptic technique was followed for all surgical procedures. On the morning of the experiment, rats were anesthetized with and maintained under inhaled 2% isoflurane, and polyethylene catheters (PE50; BD Diagnostics, Sparks, MD) were surgically inserted into the left femoral vein and left femoral artery for the infusion of saline and/or drug administration and the recording of arterial blood pressure, respectively. Subsequently, a suprapubic incision was made and a flanged polyethylene catheter (PE240; BD Diagnostics, Sparks, MD) was inserted into the bladder, exteriorized, and sutured to surrounding muscle and skin. Rats were then placed in an elevated restrainer (Krowicki & Kapusta, 2011) to recover from surgery and allow collection of urine. When acute experimental protocols were completed, rats were anesthetized via isoflurane and decapitated.
Acute Cardiovascular and Renal Excretory Studies: Following surgery, rats received an i.v. infusion of isotonic saline at 55 μL min^−1 throughout the duration of the experiment and were allowed 4-6 hours to recover from anesthesia. Arterial catheters were connected to a pressure transducer (MLT0670, ADInstruments, Sydney, Australia), which was connected to Powerlab 8/30 (ADInstruments) for recording of pulsatile and mean arterial blood pressure (MAP) and heart rate (HR). Blood pressure and HR were visualized using LabChart software (v8.1.5; ADInstruments). […] Following this control period, drug or vehicle (isotonic saline) was injected into the femoral vein catheter at a volume of 2 cc kg^−1, and urines were collected in 10 minute periods for a span of 90 minutes. […] All groups are n=6. Urine volume was measured gravimetrically, urine sodium and potassium concentrations were measured using flame photometry (model 943; Instrumentation Laboratories, Lexington, MA), and urine osmolality was measured using a vapor pressure osmometer (model 5600; WESCOR, Logan, UT).
as §2

[4] = in rats; cited from earlier work
[5] = tested on: spontaneously hypertensive rats; assay: Chronic subcutaneous infusion of nalfurafine, radiotelemetry blood pressure (FIG. 19); assay type: in vivo, rat
Procedure: as §3, §4
In a separate cohort, spontaneously hypertensive rats were administered a subcutaneous nalfurafine infusion (0.3 mg/day) or vehicle (isotonic saline) using an osmotic pump (2ML4; Alzet) for 4 weeks. For the insertion of the osmotic pumps, rats were anesthetized and maintained under 2% isoflurane, a small incision was made at the nape, and the osmotic pump was inserted between the scapulae. The incision was sutured, and rats were returned to their home cages. Blood pressure was recorded throughout the entirety of the experiment and the 20:00-22:00 time frame was plotted.
as §5

[6] = oral gavage, cumulative 5-hour urine, same doses, mean±SEM
[7] = i.v. bolus, cumulative 90-min urine, same doses, mean±SEM
[8] = subcutaneous infusion 0.3 mg/day, 30 days

CN(C(=O)/C=C/c1ccoc1)[C@@H]1CC[C@@]2(O)[C@H]3Cc4ccc(O)c5c4[C@@]2(CCN3CC2CC2)[C@H]1O5 [nalfurafine, Nalfurafine]
Effect on diuretic resistance to furosemide (Sprague-Dawley rats): prevents the diuretic resistance | Time of peak diuresis ([1]; after oral gavage 150 μg kg−1): 2 h | Potassium concentration [K+] in cumulative urine [1, 6]: 14.55±1.46 μeq ml^−1 | Sodium concentration [Na+] in cumulative urine [1, 6]: 16.92±1.45 μeq ml^−1 | Total urine output ([1]; oral gavage, cumulative urine of 5-hour protocol, nalfurafine 150 μg kg−1, furosemide 50 mg kg−1, HCTZ 5 mg kg−1, amiloride 5 mg kg−1, mean±SEM, n=6): 14.55 ± 0.57 mL | Diastolic blood pressure and heart rate vs vehicle [2]: no significant interaction between treatment over time for diastolic blood pressure or heart rate | Mean arterial pressure vs vehicle ([2]; 12:00-14:00 time frame): significantly lower mean arterial pressure at the 3-week time point | Systolic blood pressure vs vehicle ([2]; 12:00-14:00 time frame): significantly lower in the nalfurafine group compared to vehicle at 3, 4, and 5 weeks | Duration of the increase in urine flow rate above control ([3]; after i.v. bolus): 50 min | Time of peak diuresis (urine flow rate) ([3]; after i.v. bolus): 30 min | Time of peak antikaliuresis ([3]; after i.v. bolus 5 μg kg−1): 50 min | Time of peak antinatriuresis ([3]; after i.v. bolus 5 μg kg−1): 40 min | Effect on heart rate (HR) ([3]; i.v. bolus, 90-min protocol): did not change HR | Potassium concentration [K+] in cumulative urine [3, 7]: 4.51±0.68 μeq ml^−1 | Sodium concentration [Na+] in cumulative urine [3, 7]: 43.59±5.71 μeq ml^−1 | Urine osmolality [3, 7]: 158.7 ± 16.78 mmol/kg | Mean arterial pressure (MAP), peak Δ ([3]; i.v. bolus, peak change vs group control value, time of peak 40 to 90 min as printed): −11 mmHg | Decrease in MAP ([3]; i.v. nalfurafine, as summarised in the discussion): ~10 mmHg | Half-life [4]: ~6 h | Decrease in systolic, diastolic, and mean arterial pressure ([5]; 1 day of subcutaneous nalfurafine infusion 0.3 mg/day, 20:00-22:00 time frame): ~20 mmHg | Heart rate vs vehicle [5, 8]: significantly lower heart rate than the vehicle treated group on day 9, day 16-22, and day 25-30 | Systolic, diastolic, mean arterial pressure and heart rate over time [5, 8]: did not demonstrate an increase in these parameters
